Experimental data taken from publication PMC8213057, “Targeting ALK2: An Open Science Approach to Developing Therapeutics for the Treatment of Diffuse Intrinsic Pontine Glioma” (Journal of Medicinal Chemistry, 2020).

Key:
FLT3 = molecular target: T1, FLT3 (Homo sapiens, UniProt P36888); test: 375-member kinase panel; type: biochemical; settings: Run 1, Run 2; for % enzyme activity: 1 μM; for remaining activity at 1 µM: read-out: % enzyme activity, 1 μM
T1 construct: purchased Reaction Biology Corporation
T1 sequence (P36888 27-993): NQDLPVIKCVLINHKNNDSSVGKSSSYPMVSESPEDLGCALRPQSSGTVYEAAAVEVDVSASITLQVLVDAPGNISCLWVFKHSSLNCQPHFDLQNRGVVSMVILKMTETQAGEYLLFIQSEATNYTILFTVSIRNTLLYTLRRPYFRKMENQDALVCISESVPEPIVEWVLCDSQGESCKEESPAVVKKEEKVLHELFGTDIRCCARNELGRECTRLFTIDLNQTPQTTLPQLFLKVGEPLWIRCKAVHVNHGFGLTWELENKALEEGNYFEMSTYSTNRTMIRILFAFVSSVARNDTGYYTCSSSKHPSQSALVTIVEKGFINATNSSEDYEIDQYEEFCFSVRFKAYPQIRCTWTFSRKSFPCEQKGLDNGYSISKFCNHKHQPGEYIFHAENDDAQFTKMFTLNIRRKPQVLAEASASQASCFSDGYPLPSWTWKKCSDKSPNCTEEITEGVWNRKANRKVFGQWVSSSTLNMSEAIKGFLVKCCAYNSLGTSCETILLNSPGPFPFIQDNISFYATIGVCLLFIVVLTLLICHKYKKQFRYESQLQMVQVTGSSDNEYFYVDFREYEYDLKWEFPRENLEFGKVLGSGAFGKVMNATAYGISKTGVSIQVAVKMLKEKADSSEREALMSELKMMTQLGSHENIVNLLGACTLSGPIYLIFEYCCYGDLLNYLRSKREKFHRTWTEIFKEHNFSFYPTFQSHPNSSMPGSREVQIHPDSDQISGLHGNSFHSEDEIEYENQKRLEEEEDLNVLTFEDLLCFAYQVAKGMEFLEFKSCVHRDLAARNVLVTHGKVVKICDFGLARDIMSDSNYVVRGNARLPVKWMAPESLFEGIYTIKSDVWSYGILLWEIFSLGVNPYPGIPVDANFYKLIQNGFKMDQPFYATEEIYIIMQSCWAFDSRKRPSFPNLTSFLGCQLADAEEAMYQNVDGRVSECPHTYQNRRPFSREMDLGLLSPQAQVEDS

AXL = molecular target: T2, AXL (Homo sapiens, UniProt P30530); settings: 1 μM; Run 1, Run 2
T2 sequence (P30530 26-894): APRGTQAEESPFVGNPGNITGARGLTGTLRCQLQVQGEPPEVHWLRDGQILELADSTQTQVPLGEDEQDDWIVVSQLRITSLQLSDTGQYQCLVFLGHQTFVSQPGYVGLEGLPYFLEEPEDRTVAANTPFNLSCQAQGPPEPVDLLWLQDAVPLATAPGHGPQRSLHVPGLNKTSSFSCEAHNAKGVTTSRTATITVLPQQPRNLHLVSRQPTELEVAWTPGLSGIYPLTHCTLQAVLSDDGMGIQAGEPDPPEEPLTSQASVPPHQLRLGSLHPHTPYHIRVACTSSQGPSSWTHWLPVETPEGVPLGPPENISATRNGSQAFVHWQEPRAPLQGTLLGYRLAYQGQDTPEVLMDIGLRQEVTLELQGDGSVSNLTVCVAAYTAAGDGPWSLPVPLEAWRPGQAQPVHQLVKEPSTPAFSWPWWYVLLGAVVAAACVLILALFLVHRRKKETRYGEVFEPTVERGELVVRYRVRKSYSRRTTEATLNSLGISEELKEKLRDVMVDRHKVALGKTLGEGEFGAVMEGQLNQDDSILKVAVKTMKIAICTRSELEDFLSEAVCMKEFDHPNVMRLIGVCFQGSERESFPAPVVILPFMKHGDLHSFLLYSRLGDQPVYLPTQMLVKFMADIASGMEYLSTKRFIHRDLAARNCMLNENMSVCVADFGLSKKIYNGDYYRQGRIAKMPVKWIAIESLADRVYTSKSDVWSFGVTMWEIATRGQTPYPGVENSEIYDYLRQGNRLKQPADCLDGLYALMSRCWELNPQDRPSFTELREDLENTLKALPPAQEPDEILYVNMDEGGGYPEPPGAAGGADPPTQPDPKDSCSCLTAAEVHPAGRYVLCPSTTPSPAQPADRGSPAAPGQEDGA

CDK3/cyclin E2 = CDK3/cyclin E2 (Homo sapiens, UniProt Q00526); settings: 1 μM; Run 1, Run 2
RIPK2 = RIPK2 (Homo sapiens, UniProt O43353); settings: 1 μM; Run 1, Run 2
CDK4/cyclin D3 = CDK4/cyclin D3 (Homo sapiens, UniProt P11802); test: biochemical; settings: read-out: % enzyme activity, 1 μM; Run 1, Run 2
JNK1 = JNK1 (Homo sapiens, UniProt P45983); test: biochemical; settings: read-out: % enzyme activity, 1 μM; Run 1, Run 2
TEC = molecular target: T3, TEC (Homo sapiens, UniProt P42680); test: biochemical; settings: read-out: % enzyme activity, 1 μM; Run 1, Run 2
T3 sequence (P42680 1-631): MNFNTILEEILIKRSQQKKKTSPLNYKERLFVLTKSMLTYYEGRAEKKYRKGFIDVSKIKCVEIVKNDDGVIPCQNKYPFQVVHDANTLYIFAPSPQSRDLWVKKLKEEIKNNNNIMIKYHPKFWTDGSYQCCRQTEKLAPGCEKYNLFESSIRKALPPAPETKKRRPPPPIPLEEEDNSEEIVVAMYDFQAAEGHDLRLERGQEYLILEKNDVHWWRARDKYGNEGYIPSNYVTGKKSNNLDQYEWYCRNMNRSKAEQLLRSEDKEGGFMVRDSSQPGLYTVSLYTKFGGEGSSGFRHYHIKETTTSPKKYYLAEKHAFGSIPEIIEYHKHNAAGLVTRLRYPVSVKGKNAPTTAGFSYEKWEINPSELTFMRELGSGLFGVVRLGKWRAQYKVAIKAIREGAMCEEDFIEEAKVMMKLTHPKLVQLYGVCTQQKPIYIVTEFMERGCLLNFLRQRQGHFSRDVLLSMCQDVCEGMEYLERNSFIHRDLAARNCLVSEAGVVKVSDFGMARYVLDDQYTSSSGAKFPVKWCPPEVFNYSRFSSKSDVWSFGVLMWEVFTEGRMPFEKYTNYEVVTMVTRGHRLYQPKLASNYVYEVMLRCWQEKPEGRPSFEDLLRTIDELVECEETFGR

Sequence of RIPK2 (O43353 whole entry): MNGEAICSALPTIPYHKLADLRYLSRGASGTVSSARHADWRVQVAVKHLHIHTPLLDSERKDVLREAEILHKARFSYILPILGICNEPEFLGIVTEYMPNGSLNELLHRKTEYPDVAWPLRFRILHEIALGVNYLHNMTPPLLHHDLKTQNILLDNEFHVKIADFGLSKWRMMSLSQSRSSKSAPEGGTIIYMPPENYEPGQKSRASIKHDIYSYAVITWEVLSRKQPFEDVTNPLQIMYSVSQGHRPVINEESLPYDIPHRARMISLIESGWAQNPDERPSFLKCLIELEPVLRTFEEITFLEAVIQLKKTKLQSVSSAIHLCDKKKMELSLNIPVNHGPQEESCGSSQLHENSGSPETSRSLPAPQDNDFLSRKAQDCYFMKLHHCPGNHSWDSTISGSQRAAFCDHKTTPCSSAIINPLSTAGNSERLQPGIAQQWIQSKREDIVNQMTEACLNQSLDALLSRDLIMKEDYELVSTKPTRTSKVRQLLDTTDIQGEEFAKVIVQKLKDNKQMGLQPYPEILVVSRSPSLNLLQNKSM
Sequence of CDK3/cyclin E2 (Q00526 whole entry): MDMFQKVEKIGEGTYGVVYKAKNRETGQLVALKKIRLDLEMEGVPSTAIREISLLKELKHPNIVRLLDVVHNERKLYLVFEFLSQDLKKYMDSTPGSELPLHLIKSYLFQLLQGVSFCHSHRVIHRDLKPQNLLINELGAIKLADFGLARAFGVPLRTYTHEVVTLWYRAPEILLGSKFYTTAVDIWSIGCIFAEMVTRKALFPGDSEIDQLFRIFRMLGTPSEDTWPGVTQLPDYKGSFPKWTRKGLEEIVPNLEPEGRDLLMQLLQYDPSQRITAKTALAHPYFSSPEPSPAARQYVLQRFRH
Sequence of CDK3/cyclin E2 (O96020 whole entry partner): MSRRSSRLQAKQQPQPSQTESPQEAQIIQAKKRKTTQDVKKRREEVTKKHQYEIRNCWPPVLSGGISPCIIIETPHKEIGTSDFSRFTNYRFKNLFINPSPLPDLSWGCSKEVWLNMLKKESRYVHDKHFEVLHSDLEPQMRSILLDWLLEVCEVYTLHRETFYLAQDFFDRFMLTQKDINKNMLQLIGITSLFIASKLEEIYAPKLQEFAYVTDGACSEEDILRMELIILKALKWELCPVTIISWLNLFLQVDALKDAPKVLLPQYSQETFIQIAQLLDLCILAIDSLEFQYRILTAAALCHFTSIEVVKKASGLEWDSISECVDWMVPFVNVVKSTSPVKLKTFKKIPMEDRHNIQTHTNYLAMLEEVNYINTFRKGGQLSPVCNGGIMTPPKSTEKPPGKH
Sequence of CDK4/cyclin D3 (P11802 whole entry): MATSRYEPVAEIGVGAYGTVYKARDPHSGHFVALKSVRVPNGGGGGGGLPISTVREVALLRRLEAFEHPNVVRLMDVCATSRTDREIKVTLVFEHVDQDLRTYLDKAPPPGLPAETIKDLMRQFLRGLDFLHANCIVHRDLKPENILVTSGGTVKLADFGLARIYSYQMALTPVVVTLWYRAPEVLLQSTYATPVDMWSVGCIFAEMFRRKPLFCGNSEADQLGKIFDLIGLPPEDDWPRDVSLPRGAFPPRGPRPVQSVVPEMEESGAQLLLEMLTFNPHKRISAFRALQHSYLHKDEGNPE
Sequence of CDK4/cyclin D3 (P30281 whole entry partner): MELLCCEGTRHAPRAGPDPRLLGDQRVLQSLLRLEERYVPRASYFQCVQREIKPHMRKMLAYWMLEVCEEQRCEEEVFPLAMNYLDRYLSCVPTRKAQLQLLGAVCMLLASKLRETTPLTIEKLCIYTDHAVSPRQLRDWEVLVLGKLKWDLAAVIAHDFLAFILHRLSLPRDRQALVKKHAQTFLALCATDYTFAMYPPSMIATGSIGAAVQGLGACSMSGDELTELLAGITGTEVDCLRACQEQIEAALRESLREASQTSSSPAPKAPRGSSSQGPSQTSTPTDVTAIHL
Sequence of JNK1 (P45983 whole entry): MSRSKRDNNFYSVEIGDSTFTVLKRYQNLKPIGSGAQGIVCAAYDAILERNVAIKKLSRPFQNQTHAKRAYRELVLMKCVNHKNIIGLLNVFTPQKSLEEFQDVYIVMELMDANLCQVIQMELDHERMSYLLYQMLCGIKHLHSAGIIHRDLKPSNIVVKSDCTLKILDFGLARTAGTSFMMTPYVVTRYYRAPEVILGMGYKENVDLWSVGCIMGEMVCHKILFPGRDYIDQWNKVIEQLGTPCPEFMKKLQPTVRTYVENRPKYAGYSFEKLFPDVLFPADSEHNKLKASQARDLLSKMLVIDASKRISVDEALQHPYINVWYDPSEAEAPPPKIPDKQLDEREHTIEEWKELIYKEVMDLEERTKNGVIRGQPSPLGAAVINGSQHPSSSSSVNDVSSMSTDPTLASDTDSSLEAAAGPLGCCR

Compound: COc1cc(-c2cncc(-c3ccc(N4CCN(C)CC4)cc3)c2C)cc(F)c1C(N)=O [Compound 26a, 2-Fluoro-6-methoxy-4-(4-methyl-5-(4-(4-methylpiperazin-1-yl)phenyl)pyridin-3-yl)benzamide]
- % enzyme activity (FLT3): 76.15%
- remaining activity at 1 µM (FLT3): 77.1%
- % enzyme activity (AXL): 81.59%
- % enzyme activity (CDK3/cyclin E2): 88.05%
- % enzyme activity (RIPK2): 66.31%
- remaining activity at 1 µM (CDK4/cyclin D3): 101%
- remaining activity at 1 µM (JNK1): 90.6%
- remaining activity at 1 µM (TEC): 108%

Compound: COc1cc(-c2cncc(-c3ccc(N4C[C@@H](C)N(C)[C@@H](C)C4)cc3)c2C)cc(F)c1C(N)=O [Compound 26c, 2-Fluoro-6-methoxy-4-(4-methyl-5-(4-((3R,5S)-3,4,5-trimethylpiperazin-1-yl)phenyl)pyridin-3-yl)benzamide]
- % enzyme activity (FLT3): 81.48%
- remaining activity at 1 µM (FLT3): 84.3%
- % enzyme activity (AXL): 86.95%
- % enzyme activity (CDK3/cyclin E2): 83.94%
- % enzyme activity (RIPK2): 89.10%
- remaining activity at 1 µM (CDK4/cyclin D3): 96%
- remaining activity at 1 µM (JNK1): 86.9%
- remaining activity at 1 µM (TEC): 106%
